Reference: ChEMBL document CHEMBL1201862, “PubChem BioAssay data set” (2004)
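Protocol summary: plate cells (96-well), add compound at 5 concentrations, incubate 48 h, interpolate endpoints linearly. GI50 = concentration required for 50% inhibition of growth.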 The source made the active and inactive calls. Cut-off read from the data, not from the text of the source: active = GI50 up to about 1.1 µM and inactive = higher.

How the values were obtained:
Assay in all cases: growth of human tumour cells (NCI), 48 h
786-0 = system: 786-0
A498 = system: A498
A549 = system: A549
ACHN = system: ACHN
CAKI-1 = system: CAKI-1
CCRF-CEM = system: CCRF-CEM
COLO 205 = system: COLO 205
DU-145 = system: DU-145
EKVX = system: EKVX
HCC 2998 = system: HCC 2998
HCT-116 = system: HCT-116
HCT-15 = system: HCT-15
HL-60 = system: HL-60
HOP-62 = system: HOP-62
HOP-92 = system: HOP-92
HT-29 = system: HT-29
Hs-578T = system: Hs-578T
IGROV-1 = system: IGROV-1
K562 = system: K562
KM12 = system: KM12
LOX IMVI = system: LOX IMVI
M14 = system: M14
MCF7 = system: MCF7
MDA-MB-231 = system: MDA-MB-231
MDA-MB-435 = system: MDA-MB-435
MDA-N = system: MDA-N
MOLT-4 = system: MOLT-4
Malme-3M = system: Malme-3M
NCI-H226 = system: NCI-H226
NCI-H23 = system: NCI-H23
NCI-H460 = system: NCI-H460
NCI/ADR-RES = system: NCI/ADR-RES
OVCAR-3 = system: OVCAR-3
OVCAR-4 = system: OVCAR-4
OVCAR-5 = system: OVCAR-5
OVCAR-8 = system: OVCAR-8
PC-3 = system: PC-3
RPMI-8226 = system: RPMI-8226
RXF 393 = system: RXF 393
SF-268 = system: SF-268
SF-295 = system: SF-295
SF-539 = system: SF-539
SK-MEL-28 = system: SK-MEL-28
SK-MEL-2 = system: SK-MEL-2
SK-MEL-5 = system: SK-MEL-5
SK-OV-3 = system: SK-OV-3
SN12C = system: SN12C
SNB-19 = system: SNB-19
SNB-75 = system: SNB-75
SR = system: SR
SW-620 = system: SW-620
T47D = system: T47D
TK-10 = system: TK-10
UACC-257 = system: UACC-257
UACC-62 = system: UACC-62
UO-31 = system: UO-31
BT-549 = system: BT-549
NCI-H522 = system: NCI-H522
U-251 = system: U-251

`Cc1cc(O)cc(O)c1C(=O)O[C@]1(C)C(=O)C=C2C=C(/C=C/C(=O)O)OC=C2C1=O` was tested, and the GI50 (786-0) was > 100 µM (inactive), the GI50 (A498) was > 100 µM (inactive) and the GI50 (A549) was > 100 µM (inactive). The GI50 (ACHN) was > 100 µM (inactive), the GI50 (CAKI-1) was > 100 µM (inactive) and the GI50 (CCRF-CEM) was 38.5 µM (inactive). The GI50 (COLO 205) was > 100 µM (inactive), the GI50 (DU-145) was > 100 µM (inactive) and the GI50 (EKVX) was > 100 µM (inactive). The GI50 (HCC 2998) was > 100 µM (inactive), the GI50 (HCT-116) was 76.9 µM (inactive) and the GI50 (HCT-15) was over 100 µM. The GI50 (HL-60) was 31.9 µM (inactive), the GI50 (HOP-62) was > 100 µM (inactive) and the GI50 (HOP-92) was 31.8 µM (inactive). For the same compound, the GI50 (HT-29) was 94.4 µM (inactive), the GI50 (Hs-578T) was > 100 µM (inactive) and the GI50 (IGROV-1) was > 100 µM (inactive). For the same compound, the GI50 (K562) was > 100 µM (inactive), the GI50 (KM12) was 41.7 µM (inactive) and the GI50 (LOX IMVI) was 37.2 µM (inactive). For the same compound, the GI50 (M14) was > 100 µM (inactive), the GI50 (MCF7) was 47.8 µM (inactive) and the GI50 (MDA-MB-231) was > 100 µM (inactive). For the same compound, the GI50 (MDA-MB-435) was > 100 µM (inactive), the GI50 (MDA-N) was > 100 µM (inactive) and the GI50 (MOLT-4) was 60.8 µM (inactive). The GI50 (Malme-3M) was 67.3 µM (inactive), the GI50 (NCI-H226) was > 100 µM (inactive) and the GI50 (NCI-H23) was > 100 µM (inactive). The GI50 (NCI-H460) was > 100 µM (inactive), the GI50 (NCI/ADR-RES) was > 100 µM (inactive) and the GI50 (OVCAR-3) was > 100 µM (inactive). For the same compound, the GI50 (OVCAR-4) was > 100 µM (inactive), the GI50 (OVCAR-5) was > 100 µM (inactive) and the GI50 (OVCAR-8) was > 100 µM (inactive). For the same compound, the GI50 (PC-3) was > 100 µM (inactive), the GI50 (RPMI-8226) was > 100 µM (inactive) and the GI50 (RXF 393) was > 100 µM (inactive). The GI50 (SF-268) was > 100 µM (inactive), the GI50 (SF-295) was > 100 µM (inactive) and the GI50 (SF-539) was > 100 µM (inactive). For the same compound, the GI50 (SK-MEL-28) was > 100 µM (inactive), the GI50 (SK-MEL-2) was > 100 µM (inactive) and the GI50 (SK-MEL-5) was > 100 µM (inactive). For the same compound, the GI50 (SK-OV-3) was > 100 µM (inactive), the GI50 (SN12C) was > 100 µM (inactive) and the GI50 (SNB-19) was > 100 µM (inactive). For the same compound, the GI50 (SNB-75) was 0.76 µM (active), the GI50 (SR) was 42.2 µM (inactive) and the GI50 (SW-620) was 58.3 µM (inactive). For the same compound, the GI50 (T47D) was > 100 µM (inactive), the GI50 (TK-10) was 45.6 µM (inactive) and the GI50 (UACC-257) was > 100 µM (inactive). The GI50 (UACC-62) was > 100 µM (inactive) and the GI50 (UO-31) was > 100 µM (inactive).
In the case of `OC(CCN1CCCCC1)(c1ccccc1)c1ccccc1` [PRIDINOL], the GI50 (786-0) is reported as > 100 µM (inactive), the GI50 (A498) is reported as > 100 µM (inactive) and the GI50 (A549) is reported as > 100 µM (inactive). The GI50 (ACHN) was > 100 µM (inactive), the GI50 (BT-549) was > 100 µM (inactive) and the GI50 (CAKI-1) was > 100 µM (inactive). The GI50 (CCRF-CEM) was > 100 µM (inactive), the GI50 (COLO 205) was > 100 µM (inactive) and the GI50 (DU-145) was > 100 µM (inactive). For the same compound, the GI50 (EKVX) was 79.6 µM (inactive), the GI50 (HCT-116) was > 100 µM (inactive) and the GI50 (HCT-15) was over 100 µM. The GI50 (HOP-62) was > 100 µM (inactive), the GI50 (HOP-92) was 32.4 µM (inactive) and the GI50 (HT-29) was 55 µM (inactive). The GI50 (IGROV-1) was > 100 µM (inactive), the GI50 (K562) was > 100 µM (inactive) and the GI50 (KM12) was > 100 µM (inactive). The GI50 (LOX IMVI) was > 100 µM (inactive), the GI50 (M14) was > 100 µM (inactive) and the GI50 (MCF7) was > 100 µM (inactive). For the same compound, the GI50 (MDA-MB-231) was > 100 µM (inactive), the GI50 (MDA-MB-435) was 82.8 µM (inactive) and the GI50 (MDA-N) was > 100 µM (inactive). The GI50 (MOLT-4) was > 100 µM (inactive), the GI50 (Malme-3M) was > 100 µM (inactive) and the GI50 (NCI-H23) was > 100 µM (inactive). For the same compound, the GI50 (NCI-H522) was > 100 µM (inactive), the GI50 (NCI/ADR-RES) was > 100 µM (inactive) and the GI50 (OVCAR-3) was > 100 µM (inactive). For the same compound, the GI50 (OVCAR-5) was > 100 µM (inactive), the GI50 (OVCAR-8) was > 100 µM (inactive) and the GI50 (PC-3) was > 100 µM (inactive). For the same compound, the GI50 (RPMI-8226) was 87.1 µM (inactive), the GI50 (RXF 393) was > 100 µM (inactive) and the GI50 (SF-268) was > 100 µM (inactive). The GI50 (SF-295) was > 100 µM (inactive), the GI50 (SK-MEL-28) was > 100 µM (inactive) and the GI50 (SK-MEL-2) was > 100 µM (inactive). For the same compound, the GI50 (SK-MEL-5) was 82.8 µM (inactive), the GI50 (SK-OV-3) was > 100 µM (inactive) and the GI50 (SN12C) was > 100 µM (inactive). For the same compound, the GI50 (SNB-19) was > 100 µM (inactive), the GI50 (SW-620) was > 100 µM (inactive) and the GI50 (T47D) was > 100 µM (inactive). The GI50 (TK-10) was > 100 µM (inactive), the GI50 (U-251) was > 100 µM (inactive) and the GI50 (UACC-62) was > 100 µM (inactive). For the same compound, the GI50 (UO-31) was 55.1 µM (inactive).
